# Experimental data taken from ChEMBL document CHEMBL3112480, “γ-Alkylidene-γ-lactones and isobutylpyrrol-2(5H)-ones analogues to rubrolides as inhibitors of biofilm formation by gram-positive and gram-negative bacteria” (Bioorg Med Chem Lett, 2014).
# Columns and labels:
# Pseudomonas aeruginosa [1] = experiment: Antibacterial activity against Pseudomonas aeruginosa ATCC 27853 assessed as effect on planktonic growth at 0.68 ug/ml after 20 hrs relative to control; format: functional
# Pseudomonas aeruginosa [2] = experiment: Antibacterial activity against Pseudomonas aeruginosa ATCC 27853 assessed as effect on planktonic growth at 5.5 ug/ml after 20 hrs relative to control; format: functional
# [3] = system: Staphylococcus epidermidis; experiment: Antibacterial activity against Staphylococcus epidermidis ATCC 35547 assessed as effect on planktonic growth at 1.37 ug/ml after 20 hrs relative to control; format: functional
# Pseudomonas aeruginosa [4] = experiment: Antibacterial activity against Pseudomonas aeruginosa ATCC 27853 assessed as effect on planktonic growth at 10.9 ug/ml after 20 hrs relative to control; format: functional
# Staphylococcus aureus [5] = experiment: Antibacterial activity against Staphylococcus aureus ATCC 25923 assessed as effect on planktonic growth at 0.34 ug/ml after 20 hrs relative to control; format: functional
# [6] = system: Staphylococcus epidermidis; experiment: Antibacterial activity against Staphylococcus epidermidis ATCC 35547 assessed as effect on planktonic growth at 0.34 ug/ml after 20 hrs relative to control; format: functional
# [7] = system: Staphylococcus epidermidis; experiment: Antibacterial activity against Staphylococcus epidermidis ATCC 35547 assessed as effect on planktonic growth at 21.9 ug/ml after 20 hrs relative to control; format: functional
# [8] = system: Staphylococcus epidermidis; experiment: Antibacterial activity against Staphylococcus epidermidis ATCC 35547 assessed as effect on planktonic growth at 87.5 ug/ml after 20 hrs relative to control; format: functional
# Pseudomonas aeruginosa [9] = experiment: Antibacterial activity against Pseudomonas aeruginosa ATCC 27853 assessed as effect on planktonic growth at 87.5 ug/ml after 20 hrs relative to control; format: functional
# Streptococcus mutans [10] = experiment: Antibacterial activity against Streptococcus mutans ATCC 25175 assessed as effect on planktonic growth at 2.73 ug/ml after 20 hrs relative to control; format: functional
# Pseudomonas aeruginosa [11] = experiment: Antibacterial activity against Pseudomonas aeruginosa ATCC 27853 assessed as effect on planktonic growth at 2.73 ug/ml after 20 hrs relative to control; format: functional
# Streptococcus mutans [12] = experiment: Antibacterial activity against Streptococcus mutans ATCC 25175 assessed as effect on planktonic growth at 1.37 ug/ml after 20 hrs relative to control; format: functional
# Streptococcus mutans [13] = experiment: Antibacterial activity against Streptococcus mutans ATCC 25175 assessed as effect on planktonic growth at 0.34 ug/ml after 20 hrs relative to control; format: functional
# Streptococcus mutans [14] = experiment: Antibacterial activity against Streptococcus mutans ATCC 25175 assessed as effect on planktonic growth at 5.5 ug/ml after 20 hrs relative to control; format: functional
# Pseudomonas aeruginosa [15] = experiment: Antibacterial activity against Pseudomonas aeruginosa ATCC 27853 assessed as effect on planktonic growth at 1.37 ug/ml after 20 hrs relative to control; format: functional
# Staphylococcus aureus [16] = experiment: Antibacterial activity against Staphylococcus aureus ATCC 25923 assessed as effect on planktonic growth at 5.5 ug/ml after 20 hrs relative to control; format: functional
# Staphylococcus aureus [17] = experiment: Antibacterial activity against Staphylococcus aureus ATCC 25923 assessed as effect on planktonic growth at 0.68 ug/ml after 20 hrs relative to control; format: functional
# Staphylococcus aureus [18] = experiment: Antibacterial activity against Staphylococcus aureus ATCC 25923 assessed as effect on planktonic growth at 1.37 ug/ml after 20 hrs relative to control; format: functional
# Staphylococcus aureus [19] = experiment: Antibacterial activity against Staphylococcus aureus ATCC 25923 assessed as effect on planktonic growth at 87.5 ug/ml after 20 hrs relative to control; format: functional
# Staphylococcus aureus [20] = experiment: Antibacterial activity against Staphylococcus aureus ATCC 25923 assessed as effect on planktonic growth at 2.73 ug/ml after 20 hrs relative to control; format: functional
# [21] = system: Staphylococcus epidermidis; experiment: Antibacterial activity against Staphylococcus epidermidis ATCC 35547 assessed as effect on planktonic growth at 0.68 ug/ml after 20 hrs relative to control; format: functional
# Streptococcus mutans [22] = experiment: Antibacterial activity against Streptococcus mutans ATCC 25175 assessed as effect on planktonic growth at 0.17 ug/ml after 20 hrs relative to control; format: functional
# [23] = system: Staphylococcus epidermidis; experiment: Antibacterial activity against Staphylococcus epidermidis ATCC 35547 assessed as effect on planktonic growth at 2.73 ug/ml after 20 hrs relative to control; format: functional
# Streptococcus mutans [24] = experiment: Antibacterial activity against Streptococcus mutans ATCC 25175 assessed as effect on planktonic growth at 0.68 ug/ml after 20 hrs relative to control; format: functional
# Pseudomonas aeruginosa [25] = experiment: Antibacterial activity against Pseudomonas aeruginosa ATCC 27853 assessed as effect on planktonic growth at 21.9 ug/ml after 20 hrs relative to control; format: functional
# [26] = system: Staphylococcus epidermidis; experiment: Antibacterial activity against Staphylococcus epidermidis ATCC 35547 assessed as effect on planktonic growth at 10.9 ug/ml after 20 hrs relative to control; format: functional
# Pseudomonas aeruginosa [27] = experiment: Antibacterial activity against Pseudomonas aeruginosa ATCC 27853 assessed as effect on planktonic growth at 43.8 ug/ml after 20 hrs relative to control; format: functional
# Streptococcus mutans [28] = experiment: Antibacterial activity against Streptococcus mutans ATCC 25175 assessed as effect on planktonic growth at 87.5 ug/ml after 20 hrs relative to control; format: functional
# Pseudomonas aeruginosa [29] = experiment: Antibacterial activity against Pseudomonas aeruginosa ATCC 27853 assessed as effect on planktonic growth at 0.17 ug/ml after 20 hrs relative to control; format: functional
# Pseudomonas aeruginosa [30] = experiment: Antibacterial activity against Pseudomonas aeruginosa ATCC 27853 assessed as inhibition of biofilm formation after 20 hrs by crystal-violet staining method; format: functional, organism-based; conditions: for IC50: ATCC 27853, 20 h
# Streptococcus mutans [31] = experiment: Antibacterial activity against Streptococcus mutans ATCC 25175 assessed as effect on planktonic growth at 43.8 ug/ml after 20 hrs relative to control; format: functional
# Pseudomonas aeruginosa [32] = experiment: Antibacterial activity against Pseudomonas aeruginosa ATCC 27853 assessed as effect on planktonic growth at 0.34 ug/ml after 20 hrs relative to control; format: functional
# [33] = system: Staphylococcus epidermidis; experiment: Antibacterial activity against Staphylococcus epidermidis ATCC 35547 assessed as inhibition of biofilm formation after 20 hrs by crystal-violet staining method; format: functional, organism-based; conditions: for IC50: ATCC 35547, 20 h
# Staphylococcus aureus [34] = experiment: Antibacterial activity against Staphylococcus aureus ATCC 25923 assessed as effect on planktonic growth at 10.9 ug/ml after 20 hrs relative to control; format: functional
# Streptococcus mutans [35] = experiment: Antibacterial activity against Streptococcus mutans ATCC 25175 assessed as effect on planktonic growth at 10.9 ug/ml after 20 hrs relative to control; format: functional
# Streptococcus mutans [36] = experiment: Antibacterial activity against Streptococcus mutans ATCC 25175 assessed as effect on planktonic growth at 21.9 ug/ml after 20 hrs relative to control; format: functional
# [37] = system: Staphylococcus epidermidis; experiment: Antibacterial activity against Staphylococcus epidermidis ATCC 35547 assessed as effect on planktonic growth at 5.5 ug/ml after 20 hrs relative to control; format: functional
# Staphylococcus aureus [38] = experiment: Antibacterial activity against Staphylococcus aureus ATCC 25923 assessed as effect on planktonic growth at 0.17 ug/ml after 20 hrs relative to control; format: functional
# Staphylococcus aureus [39] = experiment: Antibacterial activity against Staphylococcus aureus ATCC 25923 assessed as effect on planktonic growth at 43.8 ug/ml after 20 hrs relative to control; format: functional
# Staphylococcus aureus [40] = experiment: Antibacterial activity against Staphylococcus aureus ATCC 25923 assessed as effect on planktonic growth at 21.9 ug/ml after 20 hrs relative to control; format: functional
# [41] = system: Staphylococcus epidermidis; experiment: Antibacterial activity against Staphylococcus epidermidis ATCC 35547 assessed as effect on planktonic growth at 0.17 ug/ml after 20 hrs relative to control; format: functional
# [42] = system: Staphylococcus epidermidis; experiment: Antibacterial activity against Staphylococcus epidermidis ATCC 35547 assessed as effect on planktonic growth at 43.8 ug/ml after 20 hrs relative to control; format: functional
smiles,measurement,setting,value
COc1ccc(Br)cc1C1=C(Br)C(=O)O/C1=C\c1cccc(Cl)c1,Activity,Pseudomonas aeruginosa [1],-3.1%
same,Activity,Pseudomonas aeruginosa [2],-19.8%
same,Activity,[3],-2.4%
same,Activity,Pseudomonas aeruginosa [4],-16.9%
same,Activity,Staphylococcus aureus [5],14.5%
same,Activity,[6],-6.1%
same,Activity,[7],8.8%
same,Activity,[8],28.4%
same,Activity,Pseudomonas aeruginosa [9],-7.3%
same,Activity,Streptococcus mutans [10],16.2%
same,Activity,Pseudomonas aeruginosa [11],-21.1%
same,Activity,Streptococcus mutans [12],8.9%
same,Activity,Streptococcus mutans [13],7.6%
same,Activity,Streptococcus mutans [14],12.4%
same,Activity,Pseudomonas aeruginosa [15],-13.2%
same,Activity,Staphylococcus aureus [16],36.6%
same,Activity,Staphylococcus aureus [17],20%
same,Activity,Staphylococcus aureus [18],27%
same,Activity,Staphylococcus aureus [19],121.6%
same,Activity,Staphylococcus aureus [20],30.1%
same,Activity,[21],-1.6%
same,Activity,Streptococcus mutans [22],-1%
same,Activity,[23],0.1%
same,Activity,Streptococcus mutans [24],8.4%
same,Activity,Pseudomonas aeruginosa [25],-15%
same,Activity,[26],8.6%
same,Activity,Pseudomonas aeruginosa [27],-9.5%
same,Activity,Streptococcus mutans [28],14.9%
same,Activity,Pseudomonas aeruginosa [29],1.4%
same,inhibition,Pseudomonas aeruginosa [30],Dose-dependent effect
same,IC50,Pseudomonas aeruginosa [30],> 87.5 µg/mL
same,Activity,Streptococcus mutans [31],0.5%
same,Activity,Pseudomonas aeruginosa [32],0.3%
same,inhibition,[33],Dose-dependent effect
same,IC50,[33],40 µg/mL
same,Activity,Staphylococcus aureus [34],43.6%
same,Activity,Streptococcus mutans [35],13.4%
same,Activity,Streptococcus mutans [36],-5.8%
same,Activity,[37],1.6%
same,Activity,Staphylococcus aureus [38],13.8%
same,Activity,Staphylococcus aureus [39],75.8%
same,Activity,Staphylococcus aureus [40],43.1%
same,Activity,[41],-1.7%
same,Activity,[42],20.6%
COc1ccc(Br)cc1C1=C(Br)C(=O)O/C1=C\c1ccc(Br)cc1,Activity,Pseudomonas aeruginosa [1],-1.8%
same,Activity,Pseudomonas aeruginosa [2],-22%
same,Activity,[3],-2.2%
same,Activity,Pseudomonas aeruginosa [4],-17.6%
same,Activity,Staphylococcus aureus [5],0.5%
same,Activity,[6],0.6%
same,Activity,[7],3.9%
same,Activity,[8],31.9%
same,Activity,Pseudomonas aeruginosa [9],-12.9%
same,Activity,Streptococcus mutans [10],15%
same,Activity,Pseudomonas aeruginosa [11],-19.2%
same,Activity,Streptococcus mutans [12],12.3%
same,Activity,Streptococcus mutans [13],3.8%
same,Activity,Streptococcus mutans [14],10.3%
same,Activity,Pseudomonas aeruginosa [15],-8.6%
same,Activity,Staphylococcus aureus [16],8.3%
same,Activity,Staphylococcus aureus [17],0.8%
same,Activity,Staphylococcus aureus [18],6.7%
same,Activity,Staphylococcus aureus [19],9.4%
same,Activity,Staphylococcus aureus [20],5.6%
same,Activity,[21],-0.2%
same,Activity,Streptococcus mutans [22],4.5%
same,Activity,[23],4.5%
same,Activity,Streptococcus mutans [24],7%
same,Activity,Pseudomonas aeruginosa [25],-15.1%
same,Activity,[26],-1.5%
same,Activity,Pseudomonas aeruginosa [27],-12.1%
same,Activity,Streptococcus mutans [28],-13.5%
same,Activity,Pseudomonas aeruginosa [29],-1.8%
same,inhibition,Pseudomonas aeruginosa [30],Dose-dependent effect
same,IC50,Pseudomonas aeruginosa [30],> 87.5 µg/mL
same,Activity,Streptococcus mutans [31],-11.3%
same,Activity,Pseudomonas aeruginosa [32],-1.9%
same,inhibition,[33],Dose-dependent effect
same,IC50,[33],41.3 µg/mL
same,Activity,Staphylococcus aureus [34],15.8%
same,Activity,Streptococcus mutans [35],7.2%
same,Activity,Streptococcus mutans [36],4%
same,Activity,[37],1%
same,Activity,Staphylococcus aureus [38],-1.6%
same,Activity,Staphylococcus aureus [39],13.1%
same,Activity,Staphylococcus aureus [40],23.1%
same,Activity,[41],8.1%
same,Activity,[42],22.1%
